Data published in US9415103B2, “Combination therapy to prevent DCIS formation and progression to breast cancer” (Yeda Research and Development Co. Ltd., priority 2011, dated 2016).

How the values were obtained:
MCF10A-HER2 spheroids = experiment: Morphogenesis assay in Matrigel: luminal filling and cleaved Caspase-3 staining by confocal microscopy; format: cell-based, human; conditions: spheroids grown 4 days, then 10058-F4 1 μM, FIG. 4G; for luminal filling: LY-294002 2 μM or U0126 1 μM for up to 4 additional days, day 8; for Caspase-3 activation: LY-294002 2 μM or U0126 1 μM, imaged on day 6
[1] = tested on: Notch pathway genes in MCF10A-HER2 spheroids; conditions: U0126 1 μM, up to five days, lumen-filled spheroids; FIG. 2C

Row | SMILES | luminal filling (MCF10A-HER2 spheroids) | Caspase-3 activation (MCF10A-HER2 spheroids) | transcriptional induction of the Notch pathway (qRT-PCR) [1]
1 | CCc1ccc(/C=C2/SC(=S)NC2=O)cc1 [10058-F4] | significant inhibition | markedly enhanced | 
2 | N#CC(=C(/N)Sc1ccccc1N)/C(C#N)=C(\N)Sc1ccccc1N [U0126] | significant inhibition | markedly enhanced | contributes to the transcriptional induction of the Notch pathway
